Test system: Pa
Assay: OECD Quantitative Method for Evaluating Bactericidal Activity of Microbiocides Used on Hard, Non-Porous Surfaces
Type: cell-based, Pseudomonas aeruginosa
Details: for level of efficacy / number of organisms reduced (in words): quaternary ammonium acid compounds based on different acids, summary of the OECD tests
Text: One acknowledged method for determining micro efficacy is the OECD (Organisation for Economic Co-operation and Development) Quantitative Method for Evaluating Bactericidal Activity of Microbiocides Used on Hard, Non-Porous Surfaces. This method entails inoculating small, stainless steel disks called carriers with inoculum, in the presence of hard water. It is theorized that microorganisms, such as pseudomonas, form a biofilm on these carriers. Due to the size of the disk, the presence of a biofilm and the surface tension of the liquid on the disk, this requires qua-based systems to be generally over-formulated to achieve the required efficacy to pass testing. This provides an unfair advantage to both acids and oxidizers used as biocides because of their innate ability to oxidize steel, remove the biofilm without being affected by hard water. This invention combats this issue by combining the biocidal power of quaternary ammonium compound with the oxidizing power of acid.

[1] = 800 ppm Active/375 ppm Hard Water/5% Organic Soil/5 Minute Contact Time

Row | Molecule | OECD results of Quaternium Ammonium Acid Molecule, Test 1 [1] | OECD results of Quaternium Ammonium Acid Molecule, Test 2 [1] | level of efficacy / number of organisms reduced (in words) | also measured
1 | CC(=O)[O-].CCCCCCCCCC[N+](C)(C)CCCCCCCCCC [Acetic] | 5.71 | 4.93 | greatest level of efficacy | level of efficacy / number of organisms reduced (in words) (listed as acetic acid): highest number of organisms reduced
2 | CCCCCCCCCC[N+](C)(C)CCCCCCCCCC.O=C([O-])CO [Glycolic] | 1.99 | – | – | –
3 | CCCCCCCCCC[N+](C)(C)CCCCCCCCCC.O=[N+]([O-])[O-] [Nitric] | 1.94 | – | – | –
4 | O=P(O)(O)O [Phosphoric] | – | 4.93 | greatest level of efficacy | level of efficacy / number of organisms reduced (in words) (listed as phosphoric acid): highest number of organisms reduced
5 | CCCCCCCCCC[N+](C)(C)CCCCCCCCCC.NS(=O)(=O)[O-] [Sulfamic] | 4.66 | – | greatest level of efficacy | level of efficacy / number of organisms reduced (in words) (listed as sulfamic acid): highest number of organisms reduced
6 | O=C(O)C(O)C(O)C(=O)O (stereo not drawn) [Tartaric] | 4.22 | 3.05 | greatest level of efficacy | level of efficacy / number of organisms reduced (in words) (listed as tartaric acid): highest number of organisms reduced
7 | Oxalic | 5.54 | – | greatest level of efficacy | level of efficacy / number of organisms reduced (in words) (listed as oxalic acid): highest number of organisms reduced
8 | Sulfuric | 3.14 | – | – | –
9 | didecyl dimethyl ammonium carbonate/bicarbonate [Quat Carbonate, reference compound] | – | – | – | Log10 Reduction vs. Pa (Quaternium Ammonium Chloride in Acid Solution, 800 ppm Active/375 ppm Hard Water/5% Organic Soil/5 Minute Contact Time): <2.82 Log10
